Experimental data as given in publication PMC6348444, “New Water-Soluble Copper(II) Complexes with Morpholine–Thiosemicarbazone Hybrids: Insights into the Anticancer and Antibacterial Mode of Action” (Journal of Medicinal Chemistry, 2018).
Converted amounts (≈) assume the structure as drawn. Like-named read-outs stand apart in the source and are kept apart here. Each block holds one molecule with its values, some of them ahead of it.

Tests used:
[1] = test system: A2780 cells; experiment: MTT cytotoxicity assay, A2780; assay type: cell-based, human
[2] = test system: A2780cisR cells; experiment: MTT cytotoxicity assay, A2780cisR; assay type: cell-based, human; details: for IC50: MTT assay, 72 h exposure, cisplatin-resistant A2780cisR, read-out: IC50 A2780cis; for RF (resistance factor): IC50(A2780cisR)/IC50(A2780)
[3] = test system: HEK293 cells; experiment: MTT cytotoxicity assay, HEK293; assay type: cell-based, human; details: for IC50: MTT assay, 72 h exposure, noncancerous cells
[4] = n-octanol/water distribution coefficient, shake-flask; assay type: physicochemical; details: n-octanol/buffered aqueous solution, pH 7.40, UV-vis
Experimental: The titrations were carried out under a nitrogen atmosphere.

[5] = test system: Staphylococcus aureus CECT 86 (ATCC 12600); experiment: MIC microdilution, S. aureus; assay type: cell-based; details: planktonic cells
Experimental: (§1) Wild-type P. aeruginosa PAO1 strain CECT 4122 (ATCC 15692) and S. aureus CECT 86 (ATCC 12600) were obtained from the Spanish Type Culture Collection (CECT). All strains were routinely cultivated in TSB medium (Sharlab, Spain) at 37 °C. MIC assays were determined by the microdilution method using TSB broth following the method described by the Clinical and Laboratory standards Institute.[94] In brief, compounds were diluted in a 96-well microtiter plate (tissue culture-treated polystyrene; […]

[6] = test system: Pseudomonas aeruginosa PAO1 CECT 4122 (ATCC 15692); experiment: MIC microdilution, P. aeruginosa; assay type: cell-based; details: planktonic cells
Experimental: as §1

[7] = test system: A2780 cells; experiment: Cellular accumulation of Cu by ICP-MS; assay type: cell-based, human; details: 24 h exposure, 1 μM
Description: The ability of anticancer drugs to penetrate biological membranes, tissues, and barriers underlies their biological, pharmacokinetic, and metabolic properties. These properties can be predicted by calculating physicochemical characteristics of drug candidates using molecular descriptors.[30] […] The results are shown in Table S7 in the Supporting Information. On the basis of the calculated physicochemical parameters, we determined if novel compounds belonged to the drug-like chemical space, which is commonly defined by the well-known Lipinski rule, or to the known drug space (KDS), which includes all small compounds in medical use.[31] […] Following the calculations, we determined the lipophilicity of all compounds experimentally (log D7.4, Tables 1 and 2). It is known that cancer cells accumulate hydrophilic compounds to a smaller extent relative to hydrophobic compounds, thereby affecting their activity. […] As expected, proligands were more lipophilic than the corresponding Cu(II) species, which are positively charged at physiological pH (Figure 3b). […] The lipophilicity of 2–5 increased in the following order 4 < 2 < 3 < 5, and correlated well with their cytotoxicity in cancer cells, with the exception of 3. Subsequently, we determined the total cellular accumulation of Cu in A2780 cells by ICP–MS upon 24 h exposure to 1–6 in comparison with CuCl2 (Table 2). […] The accumulation increased in the order 6 < 1 < 3 < 4 < 2 < 5.
Cellular accumulation of 1–6 was determined in A2780 cells. Cells were seeded into Cellstar 6-well plates (Greiner Bio-one) at a density of 60 × 10^4 cells/well (2 mL per well). After the cells were allowed to resume exponential growth for 24 h, they were exposed to 1–6 at 1 μM for 24 h at 37 °C. The cells were washed twice with 1 mL of PBS and lysed with RIPA lysis buffer for 5–10 min at 4 °C. The cell lysates were scraped from the wells and transferred to separate 1.5 mL microtubes. The supernatant was then collected after centrifugation (13 000 rpm, 4 °C for 15 min) and total protein content of each sample was quantified via Bradford’s assay. Cell lysates were transferred to 2 mL glass vials and then digested with ultrapure 65% HNO3 at 100 °C for 24 h. The resulting solution was diluted to 1 mL (2–4% v/v HNO3) with ultrapure Milli-Q water. Cu content of each sample was quantified by ICP–MS. In was used as an internal standard. Cu and In were measured at m/z 64 and m/z 115, respectively. Metal standards for calibration curve (0, 0.5, 1, 2, 5, 10, 20, and 40 ppb) were freshly prepared before each measurement. All readings were made in triplicates in He mode. For temperature-dependent cellular accumulation experiments, A2780 cells were seeded into 35 n 10 mm tissue culture plates at a density of 60 0 10^4 cells/plate. After the cells were allowed to resume exponential growth for 24 h, they were exposed to 2 at 3 μM for 10, 30, 60, and 120 min at 37 and 4 °C. The subsequent analysis was performed as described above. For energy-dependent experiments, A2780 cells were seeded into 35 5 10 mm tissue culture plates at a density of 1 0 10^6 cells/plate. After the cells were allowed to resume exponential growth for 24 h, they were preincubated with oligomycin (5 μM) for 1 or 4 h or with cycloheximide (100 μM) for 4 h and further co-incubated with 3 μM of 2 at 37 °C. To induce total starvation, after the cells were allowed to resume exponential growth for 24 h, RPMI media was replaced with HBSS, and cells were preincubated in HBSS for 1 h and further incubated with 3 μM of 2 for 1 h at 37 °C. The subsequent analysis was performed as described above.

[8] = Solubility in water; assay type: physicochemical; details: sterile water stock solutions
Experimental: Human ovarian carcinoma cells A2780 and A2780cisR and human embryonic kidney HEK293 were obtained from ATCC. A2780 and A2780cisR cells were cultured in RPMI 1640 medium containing 10% FBS. HEK293 were cultured in DMEM medium containing 10% FBS. All cells were grown in tissue culture 25 cm^2 flasks (BD Biosciences, Singapore) at 37 °C in a humidified atmosphere of 95% air and 5% CO2. All drug stock solutions were prepared in sterile water. The amount of Cu was determined by ICP–OES.

[9] = Cyclic voltammetry, redox potentials; assay type: physicochemical; details: first reduction step
Experimental: To assess the redox properties of 1-6, detailed electrochemical and spectroscopic studies in various solvents were performed using cyclic voltammetry as well as EPR-spectroelectrochemistry. Additionally, the UV-vis spectra of 1-5 were measured (Figure S8). […] The second reduction step occurred at -1.8 V versus Fc^+/Fc (-1.16 V vs NHE) and was less reversible, indicating a ligand-based reduction. […] In aqueous solutions, the reduction potentials shifted to the less negative values, and reduction was less reversible as shown for 2 in Figure S10. […] Cyclic voltammetric experiments were performed as described previously.[46] The cyclic voltammograms were measured in the cathodic region in different solvents (DMSO, methanol, DMSO/H2O). The analytical purity grade LiClO4 (Sigma-Aldrich) and distilled and deionized water were used for preparation of 1 mM aqueous solutions of the investigated complexes 1-6. EPR spectra were recorded with the EMX plus. In situ UV-vis-NIR spectroelectrochemical measurements were performed on a spectrometer (Avantes, Model AvaSpec-2048x14-USB2 in the spectroelectrochemical cell kit ([…]3)) with the Pt-microstructured honeycomb working electrode, purchased from Pine Research Instrumentation. The cell was positioned in the CUV-UV Cuvette Holder (Ocean Optics) connected to the diode-array UV-vis-NIR spectrometer by optical fibers. UV-vis-NIR spectra were processed using the AvaSoft 7.7 software package. Halogen and deuterium lamps were used as light sources (Avantes, Model AvaLight-DH-S-BAL). The in situ EPR spectroelectrochemical experiments were carried out under an argon atmosphere in the EPR flat cell equipped with a large platinum mesh working electrode. The freshly prepared solutions were carefully purged with argon and the electrolytic cell was polarized in the galvanostatic mode directly in the cylindrical EPR cavity TM-110 (ER 4103 TM), and the EPR spectra were measured in situ.

[10] = T = 298 K, I = 0.10 M (KCl)
[11] = lowest concentration completely inhibiting growth

logβ ([10]; determined via EDTA displacement study): 19.04(2)
SMILES: NC(=NN=Cc1ccc(CN2CCOCC2)cn1)[S][Cu+] [[CuL]+]

logβ ([10]; EPR): 10.22(1)
logβ ([10]; UV-vis via CT bands): 10.42(1)
logβ ([10]; UV-vis via d-d bands): 10.45(1)
logβ ([10]; pH-metry): 10.45(4)
SMILES: NC(=NN=Cc1ccc(CN2CCOCC2)cn1)[S][Cu][OH] [[CuLH41]]

More lines, now with the values behind:

SMILES: S=C(NN=Cc1ccc(CN2CCOCC2)cn1)Nc1ccccc1 [HL^5, 5-(Morpholinomethyl)pyridine-2-carboxaldehyde 4-Phenylthiosemicarbazone]
IC50 ([1]; Homo sapiens, A2780, 72 h exposure): 310 ± 80 nM
IC50 ([2]; Homo sapiens): 1100 ± 200 nM
IC50 ([3]; Homo sapiens, HEK293): 670 ± 60 nM
logD ([4]; pH 7.4, read-out: log D7.4): ≥ 2
MIC50 ([5]; Staphylococcus aureus, growth inhibited at 50%): 10 µg/mL (≈ 28.1 µM)
MIC ([5]; Staphylococcus aureus, lowest concentration completely inhibiting growth, read-out: S. aureus MIC100): 300 µg/mL (≈ 844 µM)
MIC50 ([6]; Pseudomonas aeruginosa, growth inhibited at 50%): > 500 µg/mL
MIC ([6]; Pseudomonas aeruginosa, lowest concentration completely inhibiting growth, read-out: P. aeruginosa MIC100): > 500 µg/mL

SMILES: [Cl][Cu][S]C(=NN=Cc1ccc(CN2CCOCC2)cn1)N1CCCC1 [complex 3, [Cu(L^3)Cl]]
IC50 ([1]; 72 h exposure): 260 ± 20 nM
RF (resistance factor) [2]: 2.3
IC50 [2]: 600 ± 50 nM
SF (selectivity factor) ([3]; IC50(HEK293)/IC50(A2780)): 3.0
IC50 [3]: 780 ± 200 nM
log D7.4 [4]: +0.86 ± 0.02
cellular accumulation A2780 [7]: 2.2 ± 0.6 nmol Cu/mg protein
S. aureus MIC50 ([5]; growth inhibited at 50%): 3 µg/mL
S. aureus MIC100 [5, 11]: 10 µg/mL
P. aeruginosa MIC50 ([6]; growth inhibited at 50%): 100 µg/mL
P. aeruginosa MIC100 [6, 11]: 400 µg/mL
solubility in water [8]: 300 µM
E1/2 Red1 (DMSO) vs Fc+/Fc ([9]; DMSO, vs Fc+/Fc): –0.80 V
E1/2 Red1 (DMSO) vs NHE ([9]; DMSO, vs NHE (in brackets)): –0.16 V
E1/2 Red1 (MeOH) vs Fc+/Fc ([9]; MeOH, vs Fc+/Fc): –0.49 V
E1/2 Red1 (MeOH) vs NHE ([9]; MeOH, vs NHE (in brackets)): +0.15 V

SMILES: N.N.[Cl][Pt][Cl] [cisplatin, reference compound]
IC50 ([1]; 72 h exposure): 440 ± 130 nM
RF (resistance factor) [2]: 10.5
IC50 [2]: 4600 ± 300 nM

SMILES: NC(=NN=Cc1ccc(C[NH+]2CCOCC2)cn1)[S][Cu+] [[CuLH]2+]
logβ ([10]; EPR): 24.00(1)
logβ ([10]; UV-vis via CT bands): 24.00(1)
logβ ([10]; UV-vis via d-d bands): 23.96(1)
logβ ([10]; pH-metry): 24.09(3)
